Assay [1] concerns mouse leukemia L1210 cells. Briefly: Inhibition of L1210 cell growth. The format is cell-based. How it is done:
Preliminary biological data for inhibiting cell growth of murine L1210 leukemic cells and human acute promyelocytic leukemia cells (HL-60) during 72 h of exposure to the compounds are given in Table IV. The potencies for inhibiting [^3 H]TdR incorporation into DNA in HL-60 cells during the initial 30-min period are also given in Table IV. It is interesting to note that 1,8-di-O-methyl derivatives are uniformly devoid of activity against L1210 leukemic cells. […] The B/A ratios allow an indirect estimation of whether or not cytotoxicities exerted by these analogues are primarily due to initial inhibition of DNA synthesis. […] Whether these analogues, like m-AMSA, ellipticine, or anthracyclines, act by inhibiting DNA topoisomerase II remains to be explored. […] Our preliminary experiments indicate that the compounds arrest cells in the S and/or G2 phases of the cell cycle (unpublished results).

The subject of assay [2] is human leukemia HL-60 cells. In words: HL-60 cell growth inhibition (72 h). The format is cell-based. The note with it: HL-60, 72 h, 0.2% DMSO, read-out: ID50, M [HL-60 cell growth (72 h)] (A). How it is done: For cell growth inhibition studies, HL-60 cells […]) were grown in RPMI 1640 media at 37° C. in humidified 5% CO2 for 72 h. Viable cells were counted with the trypan blue exclusion method. The fractional inhibitions at four or five concentrations of compounds (in 0.2% DMSO) were analyzed with a median-effect plot (Chou, T.-C., et al., Adv. Enzyme Regul. 22:27 (1984)) by using a computer program. (Chou, J.; Chou, T.-C. Dose-Effect Analyses with Microcomputer. Quantitation of ID50, LD50, Synergism, Antagonism, Low-dose Risk, Receptor-Binding and Enzyme Kinetics; IBM-PC Series, Elsevier-Biosoft, Elsevier Scientific: Cambridge, U.K., (1986)). The median-effect concentration (ID50) was automatically determined for the x intercept of the median-effect plot. Cell growth in the absence of a compound and in the presence of DMSO was used as a control. DMSO (0.2%) alone inhibited cell growth 3.8±1.2% during the 72-h incubation period.

For assay [3], the system named is [^3 H]TdR incorporation into DNA in HL-60 cells. Briefly: Inhibition of [3H]TdR incorporation into DNA in HL-60 cells (initial 30 min). The class given is cell-based, human. The conditions noted are these: for IC50: HL-60, initial 30 min exposure, read-out: ID50, M (HL-60 TdR into DNA (B)); for B/A: ratio of ID50 for TdR incorporation (B) to ID50 for cell growth (A), HL-60. How it is done:
For precursor incorporation studies, each compound at four to six concentrations (0.2% DMSO) was preincubated with HL-60 cells (2.5×10^6 /Ml) for 15 min prior to the addition of [^3 H-methyl]TdR (1 μCi, 0.15 nmol/mL) and was incubated for 30 min. […] The incorporation of radioactivity in DNA in the absence of an analogue in the presence of DMSO was used as a control.

The test system of assay [4] is DNA (native and thermally denatured). Briefly: Spectrophotometric study of DNA interaction. The note with it: for interaction with DNA: absorption spectra, native and thermally denatured DNA. The format is binding, calf thymus. How it is done: Some representative compounds were studied for their ability to interact with nucleic acids in solution by comparison of the electronic spectrum of drug alone with that of the drug in the presence of an excess of nucleic acid. All drugs studied have an absorption band in the visible region, separate from the absorption band of the nucleic acids, and therefore any changes in band intensity and position were indicative of drug chromophore-DNA interaction.
Absorption spectra were measured with an IBM 9410 UV-visible spectrometer interfaced to an HP 9826 computer. Small volumes of the stock drug solutions (2 mg/mL in Me2 SO) were added to 2 mL of buffer (0.01 or 0.1 M NaCl, 5 mM Hepes, pH 7) to obtain a final drug concentration of 5-15 μM, or to the solution of native or thermally denatured DNA (0.2 and 0.1 mM, respectively) in the buffer. After incubation at room temperature for 10 min, the spectra were recorded in the 300-600 nm range (increment 1 nm) and corrected by subtracting the spectrum of the blank which was measured before addition of the drug.

The mark [5] stands for this setting: Mus musculus, Table IV, L1210, 72 h exposure, read-out: ID50, M (L1210 cell growth).
Setting [6] is: Mus musculus, L1210, Table I, read-out: ID50 (the source's name).
Setting [7] is: Mus musculus, L1210, Table I, read-out: ID50 (μg/mL).

In brackets after ≈: the same amount, converted by molar mass. Where two headings read alike, the source gives them in different places.

Consider “3-[(Diethylamino)methyl]-(or 8)-hydroxy-8(or 1)-methoxy-9,10-anthraquinone [Xa-1]”, for which the IC50 came out at 11.9 µM in assay [1] (Table II, antileukemic activity, read-out: L1210: ID50); 5.2 µM in assay [2]; 14 µM in assay [3]. Further, the B/A in assay [3] turned out to be 2.7. Also, the “interaction with DNA” value in assay [4] was “interact with both native and thermally denatured DNA but more strongly with native DNA”.

Turning to `O=C1c2cccc(O)c2C(=O)c2c(O)cc(C(Br)Br)cc21` [VIIIa, 3-(Dibromomethyl)-1,8-dihydroxy-9,10-anthraquinone], the IC50 in assay [1] (setting [5]) was found to be 0.44 µM; in assay [2] (Homo sapiens), 2.5 µM; in assay [3] (Homo sapiens, 0.5 h), 39 µM. Also, the B/A in assay [3] was 15.6.

As to `COc1cc(O)c2c(c1)C(=O)c1cc(C(Br)Br)cc(O)c1C2=O` [VIIIb, 6-(Dibromomethyl)-3-methoxy-1,8-dihydroxy-9,10-anthraquinone], the IC50 in assay [1] (setting [5]) is 0.001 µM; in assay [2] (Homo sapiens), 0.19 µM; in assay [3] (Homo sapiens, 0.5 h) it was 110 µM. For the same compound, the B/A in assay [3] came to 579.

As for `O=C1c2cccc(O)c2C(=O)c2c(O)cc(CBr)cc21` [VIa, 3-bromomethyl-1,8-dihydroxy-9,10-anthraquinone], the IC50 in assay [1] (setting [5]) is 8.6 µM; in assay [2] (Homo sapiens) it was 7.1 µM; in assay [3] (Homo sapiens, 0.5 h) it was 16 µM. Also, in assay [3], the B/A was determined as 2.3.

As for `COc1cc(O)c2c(c1)C(=O)c1cc(CBr)cc(O)c1C2=O` [VIb, 3-bromomethyl-1,8-dihydroxy-6-methoxy-9,10-anthraquinone], the IC50 in assay [1] (setting [5]) worked out at 59 µM; in assay [2] (Homo sapiens), 25 µM; in assay [3] (Homo sapiens, 0.5 h), 340 µM. Moreover, in assay [3], the B/A was 13.6.

On to `CCN(CC)Cc1cc(O)c2c(c1)C(=O)c1cccc(O)c1C2=O` [XIa-1, 3-[N,N-diethylamino)methyl-1,8-dihydroxy-9,10-anthraquinone], for which the IC50 in assay [1] (setting [6]) turned out to be 2.8 µM; in assay [1] (setting [7]), 0.99 µg/mL; in assay [1] (Mus musculus, L1210, Table II, antileukemic activity, read-out: L1210: ID50), 2.75 µM; in assay [1] (setting [5]), 280 µM; in assay [2] (Homo sapiens), 1.8 µM; in assay [3] (Homo sapiens, 0.5 h), 14 µM. In addition, in assay [3], the B/A was 7.8. Further, the “interaction with DNA” value in assay [4] was “interact with both native and thermally denatured DNA but more strongly with native DNA”.

Consider `O=C1c2cccc(O)c2C(=O)c2c(O)cc(CN(CCO)CCO)cc21` [XIa-2, 3-[N,N-bis(2-hydroxyethyl)amino] methyl-1,8-dihydroxy-9,10-anthraquinone], for which the IC50 came out at 5.9 µM in assay [1] (setting [6]); 2.33 µg/mL in assay [1] (setting [7]); 3.3 µM in assay [2] (Homo sapiens); 14 µM in assay [3] (Homo sapiens, 0.5 h). In assay [3], the B/A was determined as 4.2.

For `CNC(=O)OCCN(CCOC(=O)NC)Cc1cc(O)c2c(c1)C(=O)c1cccc(O)c1C2=O` [XIa-4], the IC50 in assay [1] (setting [5]) is > 18 µM; in assay [2] (Homo sapiens), 210 µM; in assay [3] (Homo sapiens, 0.5 h) it was 28 µM. Also, the B/A in assay [3] is 0.13.

With `CCNCc1cc(O)c2c(c1)C(=O)c1cccc(O)c1C2=O` [XIa-5, 3-[N-ethylamino)methyl-1,8-dihydroxy-9,10-anthraquinone], the IC50 in assay [1] (setting [6]) stood at 0.77 µM; in assay [1] (setting [7]), 0.26 µg/mL; in assay [2] (Homo sapiens) it was 8.7 µM; in assay [3] (Homo sapiens, 0.5 h) it was 18 µM. For the same compound, the B/A in assay [3] stood at 2.1.

Consider `NCc1cc(O)c2c(c1)C(=O)c1cccc(O)c1C2=O` [XIa-8], for which the IC50 in assay [1] (setting [5]) is 8.5 µM; in assay [2] (Homo sapiens), 11 µM; in assay [3] (Homo sapiens, 0.5 h), 25 µM. In assay [3], the B/A was 2.3.

Regarding `CN(C)Cc1cc(O)c2c(c1)C(=O)c1cccc(O)c1C2=O` [XIa-9], the IC50 in assay [1] (setting [5]) came out at 2.2 µM; in assay [2] (Homo sapiens), 2.7 µM; in assay [3] (Homo sapiens, 0.5 h), 9.3 µM. The B/A in assay [3] amounted to 3.3.

For `CCCCNCc1cc(O)c2c(c1)C(=O)c1cccc(O)c1C2=O` [XIa-10], the IC50 worked out at 4.6 µM in assay [1] (setting [5]); 4.1 µM in assay [2] (Homo sapiens); 25 µM in assay [3] (Homo sapiens, 0.5 h). Also, the B/A in assay [3] was found to be 6.1.

For the compound `O=C1c2cccc(O)c2C(=O)c2c(O)cc(CNCCCO)cc21` [XIa-11], the IC50 in assay [1] (setting [5]) was determined as 0.67 µM; in assay [2] (Homo sapiens) it was 3.2 µM; in assay [3] (Homo sapiens, 0.5 h), 16 µM. Further, the B/A in assay [3] was determined as 5.0.

On to `CC(C)NC(=O)OCCN(CCOC(=O)NC(C)C)Cc1cc(O)c2c(c1)C(=O)c1cccc(O)c1C2=O` [XIa-12], for which the IC50 in assay [1] (setting [5]) amounted to 27 µM; in assay [2] (Homo sapiens) it was 27 µM; in assay [3] (Homo sapiens, 0.5 h), 17 µM. Besides, the B/A in assay [3] was determined as 0.63.

For the compound `O=C1c2cccc(O)c2C(=O)c2c(O)cc(CN3CCCC3)cc21` [XIa-13], the IC50 in assay [1] (setting [5]) turned out to be 1.6 µM; in assay [2] (Homo sapiens) it was 2.1 µM; in assay [3] (Homo sapiens, 0.5 h), 10 µM. In addition, the B/A in assay [3] was 4.8.

Take `O=C1c2cccc(O)c2C(=O)c2c(O)cc(CN3CCCCC3)cc21` [XIa-14]: the IC50 in assay [1] (setting [5]) is 4 µM; in assay [2] (Homo sapiens), 2.8 µM; in assay [3] (Homo sapiens, 0.5 h) it was 63 µM. Also, the B/A in assay [3] is recorded as 22.5.

With `O=C1c2cccc(O)c2C(=O)c2c(O)cc(Cn3ccnc3)cc21` [XIa-15], the IC50 stood at 7.4 µM in assay [1] (setting [5]); 4.8 µM in assay [2] (Homo sapiens); 43 µM in assay [3] (Homo sapiens, 0.5 h). The B/A in assay [3] turned out to be 9.0.

Regarding `CCN(CC)Cc1cc(O)c2c(c1)C(=O)c1cc(OC)cc(O)c1C2=O` [XIb-1, 3-(N,N-diethylamino)methyl-1,8-dihydroxy-6-methoxy-9,10-anthraquinone], the IC50 came out at 1.16 µM in assay [1] (setting [6]); 0.51 µg/mL in assay [1] (setting [7]); 1.2 µM in assay [1] (setting [5]); 3.4 µM in assay [2] (Homo sapiens); 35 µM in assay [3] (Homo sapiens, 0.5 h). Further, the B/A in assay [3] came to 10.3.

On to `COc1cc(O)c2c(c1)C(=O)c1cc(CN(CCO)CCO)cc(O)c1C2=O` [XIb-2, 3-[N,N-bis(2-hydroxyethyl)amino]methyl-1,8-dihydroxy-6-methoxy-9,10-anthraquinone], for which the IC50 came out at 13.7 µM in assay [1] (setting [6]); 5.8 µg/mL in assay [1] (setting [7]); 14 µM in assay [1] (setting [5]); 6.6 µM in assay [2] (Homo sapiens); 45 µM in assay [3] (Homo sapiens, 0.5 h). The B/A in assay [3] stood at 5.2. The “interaction with DNA” value in assay [4] is “interact with both native and thermally denatured DNA but more strongly with native DNA”.

`COc1cc(O)c2c(c1)C(=O)c1cc(CN(CCCl)CCCl)cc(O)c1C2=O` [XIb-3, 3-[N,N-bis(2-chloroethyl)amino]methyl-1,8-dihydroxy-6-methoxy-9,10-anthraquinone]: the “ID50” value in assay [1] (Table I) came to 0.010 µg/mL (≈ 0.0236 µM). Besides, the IC50 in assay [1] (Table I, read-out: ID50 (the source's name)) stood at 0.023 µM; in assay [2] it was 0.61 µM; in assay [3], 12 µM. The B/A in assay [3] turned out to be 19.7. For the same compound, the “interaction with DNA on increase of salt concentration” value in assay [4] (Na concentration increased from 0.01 to 0.1 M) is on record as “lost the ability to interact with DNA”.

With `CCNCc1cc(O)c2c(c1)C(=O)c1cc(OC)cc(O)c1C2=O` [XIb-5, 3-(N-ethylamino)methyl-1,8-dihydroxy-6-methoxy-9,10-anthraquinone], the IC50 in assay [1] (setting [6]) turned out to be 0.44 µM; in assay [1] (setting [7]), 0.18 µg/mL; in assay [1] (setting [5]) it was 0.72 µM; in assay [2] (Homo sapiens), 2.1 µM; in assay [3] (Homo sapiens, 0.5 h), 13 µM. Further, the B/A in assay [3] is reported as 6.2.

The record behind these values is patent publication US5053431A, “Derivatives of chrysophanol as topoisomerase II inhibitors” (Sloan-Kettering Institute For Cancer Research, priority 1990, dated 1991).
